# Source: ChEMBL document CHEMBL3044551, “Synthesis of optically active N-(2-pyridyloxiran-2-ylmethyl) benzenesulfonamide derivatives and their herbicidal activity” (Biosci Biotechnol Biochem, 2001)
# The source made the active and inactive calls. No cut-off for these calls is given here.
# Legend:
# [1] = tested on: Oryza sativa; assay: Toxicity in direct seeded Oryza sativa (rice) plants assessed as phytotoxicity scores at 0.5 kg ai/ha measured 2 weeks post compound treatment; assay type: organism-based; conditions: in vivo, 336 h
# [2] = tested on: Echinochloa oryzicola; assay: Herbicidal activity against Echinochloa oryzicola exposed to compound at 1.5 to two-leaf stage assessed as herbicidal rate scores at 0.5 kg ai/ha measured 2 weeks post compound treatment by pot test; assay type: functional
# [3] = tested on: Echinochloa oryzicola; assay: Herbicidal activity against germinated Echinochloa oryzicola assessed as inhibition of above-ground shoot length growth after 7 days post compound treatment by petri dish test; assay type: functional; conditions: for EC50: 168 h, read-out: ED50 (the source's name)
# [4] = tested on: Cyperus serotinus; assay: Herbicidal activity against Cyperus serotinus exposed to compound at 1.5 to 2 leaf stage assessed as herbicidal rate scores at 0.5 kg ai/ha measured 2 weeks post compound treatment by pot test; assay type: functional
# [5] = tested on: Rotala indica; assay: Herbicidal activity against Rotala indica exposed to compound at 1.5 to 2 leaf stage assessed as herbicidal rate scores at 0.5 kg ai/ha measured 2 weeks post compound treatment by pot test; assay type: functional
# [6] = tested on: Oryza sativa; assay: Toxicity in two-leaf stage Oryza sativa (rice) plants exposed to compound 3 days post transplantation assessed as phytotoxicity scores at 0.5 kg ai/ha measured 2 weeks post compound treatment; assay type: organism-based; conditions: in vivo, 336 h
# [7] = tested on: Schoenoplectiella juncoides; assay: Herbicidal activity against Schoenoplectiella juncoides exposed to compound at 1.5 to two-leaf stage assessed as herbicidal rate scores at 0.5 kg ai/ha measured 2 weeks post compound treatment by pot test; assay type: functional
Compound,Activity [1],Activity [2],ED50 [3],Activity [4],Activity [5],Activity [6],Activity [7],EC50 [3]
CN(C[C@@]1(c2cccc(Cl)n2)CO1)S(=O)(=O)c1ccc2c(c1)CCCC2,0,0,inactive,0,0,0,0,–
Cc1cc(S(=O)(=O)N(C)CC2(c3cccc(Cl)n3)CO2)ccc1Cl (racemic),10,10,–,9,9,0,4,0.07 µg/mL
Cc1cc(S(=O)(=O)N(C)C[C@@]2(c3cccc(Cl)n3)CO2)ccc1Cl,0,1,inactive,2,2,0,0,–
CN(C[C@]1(c2cccc(Cl)n2)CO1)S(=O)(=O)c1ccc2c(c1)CCCC2,1,9,–,9,10,0,3,0.05 µg/mL
Cc1cc(S(=O)(=O)N(C)C[C@]2(c3cccc(Cl)n3)CO2)ccc1Cl,10,10,–,10,10,1,7,0.035 µg/mL
CN(CC1(c2cccc(Cl)n2)CO1)S(=O)(=O)c1ccc2c(c1)CCCC2 (racemic),0,8,–,8,10,0,2,0.11 µg/mL
